According to patent US11155561B2, “Substituted glutarimides as Btk inhibitors” (SHANGHAI MEIZER PHARMACEUTICALS CO., LTD., priority 2017, dated 2021):

Experiments:
Btk [1] = target: T1, Btk (Homo sapiens, UniProt Q06187); experiment: Btk protein degradation activity by Western blot in RPMI8226 cells; format: cell-based; parameters: degradation activity of the compound (10 μM) on Btk protein in RPMI8226 cells; endogenous in cells; host or cells: RPMI8226; conditions: compound 10 μM, 24 hours
Protocol: Example 6 Testing the Btk Protein Degradation Activity of Compounds by Western Blot
Cell lines: RPMI8226 Cell line was cultured in RPMI1640 medium containing 10% calf serum in a 37° C., 5% CO2, and saturated humidity incubator.
DMSO control group and compound intervention group (10 μM) were set. Cells was collected after the treatment for 24 hours, then 100 μL of pre-chilled cell lysate was added and cells were lysed on ice for 30 minutes. Total cell protein was extracted, and protein concentration was determined and quantified by […] (BCA) method. After routine gelatinization, loading, electrophoresis, then transferring to membrane and blocking, rabbit anti-human Btk (1:500) was added, and incubated at 4° C. overnight. The mixture was rinsed and then horseradish peroxidase labeled goat anti-rabbit IgG (1:5000) was added. After the rinsing it was developed by the ECL developing solution, the Bio-Rad gel imaging system was used for scanning and imaging, and the computer software was used for analysis. […] (GAPDH) was used as an internal control.
Image J software was used to analyze the gray scale of each band to calculate the Btk protein degradation rate of the compound.

[2] = tested on: RPMI 8226 cells (human multiple myeloma cells); experiment: Inhibition of proliferation of RPMI 8226 cells by CCK8 assay; format: cell-based; conditions: 48 hours
Protocol: Example 7 Testing the Inhibitory Effect of Formula Compounds on the Proliferation of RPMI 8226 Cells (Human Multiple Myeloma Cells) by CCK8 Assay
The inhibitory effect of the compound on the proliferation of RPMI 8226 cells (commercially available from ATCC) was determined by the CCK8 assay in vitro. The experimental steps were as follows:
RPMI 8226 cells were cultured in 1640 medium containing 10% calf serum, seeded in a 96-well plate with 2×10^5 cells/well, and placed in a 37° C., 5% CO2 incubator. The compound was dissolved in dimethyl sulfoxide (DMSO) to obtain a solution with a concentration of 10 mM, and then diluted to the desired concentration with a phosphate buffer solution. The solution was added to the above 96-well plate. Each concentration has 2 wells with 10 μl per well. Each concentration was tested in duplicate. As a control, DMSO was diluted in the corresponding gradient and then added to the plate.
After the 96-well plate was cultured in a 37° C., 5% CO2 cell incubator for 48 hours, 10 μl of CCK8 solution was added to each well, and it was cultured in the incubator for another 1 to 4 hours. The light absorption value at 465 nm was measured.
The relative survival rate of the cells after the compound treatment was calculated based on the light absorption value.
The IC50 of the compound against RPMI 8226 cells was calculated by software.

[3] = tested on: SU-DHL-6 (human B cell lymphoma cells); experiment: Inhibition of proliferation of SU-DHL-6 cells by CTG assay; format: cell-based; conditions: compound 10 μM, 72 hours
Protocol: (§1) Example 8 Testing the Inhibitory Effect of Formula Compounds on the Proliferation of DOHH2 Cells (Human B Cell Lymphoma Cells) and SU-DHL-6 (Human B Cell Lymphoma Cells) by CTG Assay
(§2) The […] was used to determine the inhibitory effect of the compounds on the proliferation of DOHH2 cells (available from ATCC) and SU-DHL-6 cells (available from ATCC) in vitro. Cells were cultured and compounds were prepared referring to Example 7. The cell plating density was 1×10^4 cells/well for DOHH2 cells, and 1.5×10^4 cells/well for SU-DHL-6 cells. The culture time after the administration was 72 hours. After that an appropriate amount of CTG reagent was added, the luminescence value was measured, and the inhibition rate was calculated.

Btk [4] = target: T1, Btk; experiment: Inhibition activity of compounds on Btk by Caliper assay; format: biochemical; conditions: compound 100 nM, Btk kinase
Protocol: Example 5 Testing the Inhibition Activity of Compounds on Btk by Caliper Assay
The experimental steps were as follows:
Preparation of 1× kinase reaction buffer (50 mM HEPES, PH 7.5; 0.0015% Brij-35) and kinase reaction termination solution (100 mM HEPES, PH 7.5; 0.0015% Brij-35; 0.2% Coating Reagent; 50 mM EDTA);
Preparation of experimental samples: 100 μL of 5 μM sample solution (dissolved in 100% DMSO) was added to a 96-well plate to obtain a 50× sample solution. As a control, two wells were set containing only 100 μL of 100% DMSO on the same plate. One was served as a control without samples and the other was served as a control without enzymes. 10 μL of sample and 90 μL of 1× kinase reaction buffer were added to a 96-well plate as a transfer plate. The transfer plate was shaken for 10 minutes.
Preparation of the test plate: taking 5 μL each of the prepared samples in the 96-well transfer plate into a 384-well plate.
Kinase reaction: to 5 μL of 5× compound solution (dissolved in DMSO, diluted 10 times with water) was added 10 μL of 2.5× Btk kinase solution (kinase was diluted with 1× kinase reaction buffer), and incubated at room temperature for 10 min, then 10 μL of 2.5× substrate peptide solution (FAM-labeled peptide and ATP were diluted with 1× kinase reaction buffer) was added.
Termination of the kinase reaction: 25 μL of kinase termination solution was added after being reacted at 28° C. for a period of time.
The fluorescence (F) was tested on a Caliper and data was collected.
The inhibition rate of kinase activity was calculated: the percent inhibition rate of kinase activity=(FDMSO control−Fsample)/(FDMSO control−Fnegative control)×100, with DMSO as the solution control, and no kinase as the negative control.

[5] = tested on: DOHH2 cells (human B cell lymphoma cells); experiment: Inhibition of proliferation of DOHH2 cells by CTG assay; format: cell-based; conditions: DOHH-2, compound 10 μM, 72 hours
Protocol: as §1, §2

T1 sequence (Q06187 whole entry): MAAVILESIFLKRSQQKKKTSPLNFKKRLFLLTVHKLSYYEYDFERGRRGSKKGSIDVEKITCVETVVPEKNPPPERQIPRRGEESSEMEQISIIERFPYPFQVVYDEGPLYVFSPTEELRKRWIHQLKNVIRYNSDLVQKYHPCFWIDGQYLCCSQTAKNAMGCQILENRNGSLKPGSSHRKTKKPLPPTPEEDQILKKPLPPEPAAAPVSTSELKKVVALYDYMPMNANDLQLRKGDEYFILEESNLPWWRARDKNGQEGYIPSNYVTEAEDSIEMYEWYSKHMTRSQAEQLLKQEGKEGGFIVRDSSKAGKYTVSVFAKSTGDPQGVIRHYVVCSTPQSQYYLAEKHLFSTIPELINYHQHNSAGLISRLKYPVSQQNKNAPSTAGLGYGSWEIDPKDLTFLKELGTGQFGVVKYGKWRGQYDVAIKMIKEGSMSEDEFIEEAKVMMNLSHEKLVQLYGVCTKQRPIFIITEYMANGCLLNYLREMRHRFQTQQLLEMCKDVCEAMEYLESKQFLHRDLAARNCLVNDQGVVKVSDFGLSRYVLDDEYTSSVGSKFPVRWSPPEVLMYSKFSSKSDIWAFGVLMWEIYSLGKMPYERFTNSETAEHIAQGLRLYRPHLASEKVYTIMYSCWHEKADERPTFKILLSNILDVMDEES

| IC50 [2] [µM] | inhibition at 0.1 µM (Btk [4]) [%] | Compound | Degradation activity (Btk [1]) | inhibition at 10 µM [3] [%] | inhibition at 10 µM [5] [%] |
| --- | --- | --- | --- | --- | --- |
| 6 | 99 | Nc1ncnc2c1c(-c1ccc(Oc3ccccc3)cc1)nn2C1CCCN(CCOCCOCCNc2cccc3c2C(=O)N(C2CCC(=O)NC2=O)C3=O)C1 (stereo not shown) [Compound 14] | ++++ (“++++” means the degradation rate is greater than 90%) | 87 | 98 |
| 34 | 92 | Nc1ncnc2c1c(-c1ccc(Oc3ccccc3)cc1)nn2[C@@H]1CCCN(CCCCCC(=O)Nc2cccc3c2C(=O)N(C2CCC(=O)NC2=O)C3=O)C1 (stereo partly shown) [Compound 3] | ++++ (“++++” means the degradation rate is greater than 90%) | 60 | 87 |
| – | 95 | Nc1ncnc2c1c(-c1ccc(Oc3ccccc3)cc1)nn2C1CCCN(CCOCCOCCOCCOc2cccc3c2C(=O)N(C2CCC(=O)NC2=O)C3=O)C1 (stereo not shown) [Compound 16] | ++++ (“++++” means the degradation rate is greater than 90%) | 71 | 84 |
| 83 | 99 | Nc1ncnc2c1c(-c1ccc(Oc3ccccc3)cc1)nn2C1CCCN(CCOCCOCCOc2cccc3c2C(=O)N(C2CCC(=O)NC2=O)C3=O)C1 (stereo not shown) [Compound 7] | ++++ (“++++” means the degradation rate is greater than 90%) | 53 | 63 |
